Measured values: ChEMBL document CHEMBL1144455, “A small molecule-kinase interaction map for clinical kinase inhibitors” (Nat Biotechnol, 2005)

Key:
[1] = biological target: Serine/threonine-protein kinase PAK 5 (Homo sapiens, UniProt Q9P286)
[2] = biological target: Tyrosine-protein kinase Yes (Homo sapiens, UniProt P07947)
[3] = biological target: Cyclin-dependent kinase 5 (Homo sapiens, UniProt Q00535)
[4] = biological target: Tyrosine-protein kinase BTK (Homo sapiens, UniProt Q06187)
[5] = biological target: Mitogen-activated protein kinase kinase kinase 4 (Homo sapiens, UniProt Q9Y6R4)
[6] = biological target: Calcium/calmodulin-dependent protein kinase kinase 2 (Homo sapiens, UniProt Q96RR4)
[7] = biological target: Calcium/calmodulin-dependent protein kinase kinase 1 (Homo sapiens, UniProt Q8N5S9)
Ephrin type-A receptor 7 = Ephrin type-A receptor 7 (Homo sapiens, UniProt Q15375)
[8] = biological target: T1, Serine/threonine-protein kinase 4 (Homo sapiens, UniProt Q13043)
T1 sequence (Q13043 whole entry): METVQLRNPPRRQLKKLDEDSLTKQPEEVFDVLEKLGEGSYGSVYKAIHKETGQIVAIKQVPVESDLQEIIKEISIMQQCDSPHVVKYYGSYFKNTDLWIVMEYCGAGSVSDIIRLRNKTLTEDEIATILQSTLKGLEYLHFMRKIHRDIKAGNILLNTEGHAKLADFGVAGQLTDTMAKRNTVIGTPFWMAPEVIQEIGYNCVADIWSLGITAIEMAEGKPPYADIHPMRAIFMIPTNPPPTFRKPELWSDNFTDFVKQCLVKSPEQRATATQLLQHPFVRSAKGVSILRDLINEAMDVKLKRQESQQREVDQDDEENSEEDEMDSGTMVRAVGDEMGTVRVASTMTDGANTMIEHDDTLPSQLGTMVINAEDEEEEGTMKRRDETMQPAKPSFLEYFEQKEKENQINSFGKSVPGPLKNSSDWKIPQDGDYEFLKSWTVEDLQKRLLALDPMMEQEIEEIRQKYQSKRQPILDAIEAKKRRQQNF

Ephrin type-A receptor 5 = Ephrin type-A receptor 5 (Homo sapiens, UniProt P54756)
Ephrin type-A receptor 5, sequence (P54756 whole entry): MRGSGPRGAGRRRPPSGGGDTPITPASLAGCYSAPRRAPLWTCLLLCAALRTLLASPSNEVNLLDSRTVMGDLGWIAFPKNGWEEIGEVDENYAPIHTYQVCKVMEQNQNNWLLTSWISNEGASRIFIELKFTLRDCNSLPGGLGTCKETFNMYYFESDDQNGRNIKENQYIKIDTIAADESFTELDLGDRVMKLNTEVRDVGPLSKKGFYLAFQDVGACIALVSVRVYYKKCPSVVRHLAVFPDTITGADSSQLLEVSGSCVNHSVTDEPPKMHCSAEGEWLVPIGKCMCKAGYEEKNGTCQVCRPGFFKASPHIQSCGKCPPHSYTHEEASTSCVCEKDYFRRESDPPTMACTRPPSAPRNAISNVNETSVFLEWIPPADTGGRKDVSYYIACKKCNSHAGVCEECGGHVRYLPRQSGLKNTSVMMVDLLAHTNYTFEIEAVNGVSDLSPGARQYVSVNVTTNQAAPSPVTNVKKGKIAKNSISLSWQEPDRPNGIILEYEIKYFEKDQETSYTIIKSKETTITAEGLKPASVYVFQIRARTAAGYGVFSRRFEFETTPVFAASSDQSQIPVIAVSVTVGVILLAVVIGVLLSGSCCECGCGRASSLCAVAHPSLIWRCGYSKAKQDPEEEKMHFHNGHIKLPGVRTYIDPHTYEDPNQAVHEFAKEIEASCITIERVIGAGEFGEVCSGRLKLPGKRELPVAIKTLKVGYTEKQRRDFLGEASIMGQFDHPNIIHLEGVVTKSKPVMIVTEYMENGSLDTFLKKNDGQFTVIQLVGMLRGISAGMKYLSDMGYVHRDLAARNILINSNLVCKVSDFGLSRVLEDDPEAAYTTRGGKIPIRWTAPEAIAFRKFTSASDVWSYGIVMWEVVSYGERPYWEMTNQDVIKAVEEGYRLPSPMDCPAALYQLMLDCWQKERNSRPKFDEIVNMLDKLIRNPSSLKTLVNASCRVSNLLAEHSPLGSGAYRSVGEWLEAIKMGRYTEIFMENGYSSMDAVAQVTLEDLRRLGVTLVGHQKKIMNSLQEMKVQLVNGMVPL

Ephrin type-A receptor 3 = biological target: T2, Ephrin type-A receptor 3 (Homo sapiens, UniProt P29320)
T2 sequence (P29320 whole entry): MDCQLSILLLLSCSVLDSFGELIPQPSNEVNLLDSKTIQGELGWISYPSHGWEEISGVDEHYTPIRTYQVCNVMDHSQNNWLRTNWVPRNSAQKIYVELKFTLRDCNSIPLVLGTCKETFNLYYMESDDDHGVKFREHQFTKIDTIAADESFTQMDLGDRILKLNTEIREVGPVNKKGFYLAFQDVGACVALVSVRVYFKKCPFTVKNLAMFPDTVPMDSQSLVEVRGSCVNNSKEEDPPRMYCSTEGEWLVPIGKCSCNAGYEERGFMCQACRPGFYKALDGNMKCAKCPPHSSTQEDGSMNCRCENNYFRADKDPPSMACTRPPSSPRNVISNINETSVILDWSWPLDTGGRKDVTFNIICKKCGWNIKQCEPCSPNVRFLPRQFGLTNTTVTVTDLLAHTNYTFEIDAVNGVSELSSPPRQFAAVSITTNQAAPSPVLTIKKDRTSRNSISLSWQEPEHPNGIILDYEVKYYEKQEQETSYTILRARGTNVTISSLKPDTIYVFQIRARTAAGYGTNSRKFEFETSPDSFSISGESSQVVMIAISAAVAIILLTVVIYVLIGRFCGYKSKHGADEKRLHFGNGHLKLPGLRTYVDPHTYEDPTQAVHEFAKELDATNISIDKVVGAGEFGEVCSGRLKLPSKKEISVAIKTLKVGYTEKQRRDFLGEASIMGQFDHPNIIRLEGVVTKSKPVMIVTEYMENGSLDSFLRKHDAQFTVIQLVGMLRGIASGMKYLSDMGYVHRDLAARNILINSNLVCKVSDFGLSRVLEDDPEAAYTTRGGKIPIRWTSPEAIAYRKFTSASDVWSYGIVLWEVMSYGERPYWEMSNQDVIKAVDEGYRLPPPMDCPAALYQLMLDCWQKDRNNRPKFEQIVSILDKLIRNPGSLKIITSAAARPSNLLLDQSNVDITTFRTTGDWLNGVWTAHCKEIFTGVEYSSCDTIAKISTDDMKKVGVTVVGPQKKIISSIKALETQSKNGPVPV

[9] = biological target: Serine/threonine-protein kinase 10 (Homo sapiens, UniProt O94804)
[10] = biological target: T3, Serine/threonine-protein kinase 17B (Homo sapiens, UniProt O94768)
T3 sequence (O94768 whole entry): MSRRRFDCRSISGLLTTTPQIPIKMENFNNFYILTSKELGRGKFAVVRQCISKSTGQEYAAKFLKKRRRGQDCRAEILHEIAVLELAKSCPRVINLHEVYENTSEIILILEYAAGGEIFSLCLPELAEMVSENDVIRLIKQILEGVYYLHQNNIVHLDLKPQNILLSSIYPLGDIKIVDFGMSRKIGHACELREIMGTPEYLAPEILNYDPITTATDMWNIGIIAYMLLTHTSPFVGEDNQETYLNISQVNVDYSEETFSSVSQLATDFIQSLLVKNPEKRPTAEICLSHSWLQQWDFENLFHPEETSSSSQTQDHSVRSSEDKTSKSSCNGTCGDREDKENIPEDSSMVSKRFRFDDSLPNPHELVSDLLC

[11] = biological target: AP2-associated protein kinase 1 (Homo sapiens, UniProt Q2M2I8)
AP2-associated protein kinase 1, sequence (Q2M2I8 whole entry): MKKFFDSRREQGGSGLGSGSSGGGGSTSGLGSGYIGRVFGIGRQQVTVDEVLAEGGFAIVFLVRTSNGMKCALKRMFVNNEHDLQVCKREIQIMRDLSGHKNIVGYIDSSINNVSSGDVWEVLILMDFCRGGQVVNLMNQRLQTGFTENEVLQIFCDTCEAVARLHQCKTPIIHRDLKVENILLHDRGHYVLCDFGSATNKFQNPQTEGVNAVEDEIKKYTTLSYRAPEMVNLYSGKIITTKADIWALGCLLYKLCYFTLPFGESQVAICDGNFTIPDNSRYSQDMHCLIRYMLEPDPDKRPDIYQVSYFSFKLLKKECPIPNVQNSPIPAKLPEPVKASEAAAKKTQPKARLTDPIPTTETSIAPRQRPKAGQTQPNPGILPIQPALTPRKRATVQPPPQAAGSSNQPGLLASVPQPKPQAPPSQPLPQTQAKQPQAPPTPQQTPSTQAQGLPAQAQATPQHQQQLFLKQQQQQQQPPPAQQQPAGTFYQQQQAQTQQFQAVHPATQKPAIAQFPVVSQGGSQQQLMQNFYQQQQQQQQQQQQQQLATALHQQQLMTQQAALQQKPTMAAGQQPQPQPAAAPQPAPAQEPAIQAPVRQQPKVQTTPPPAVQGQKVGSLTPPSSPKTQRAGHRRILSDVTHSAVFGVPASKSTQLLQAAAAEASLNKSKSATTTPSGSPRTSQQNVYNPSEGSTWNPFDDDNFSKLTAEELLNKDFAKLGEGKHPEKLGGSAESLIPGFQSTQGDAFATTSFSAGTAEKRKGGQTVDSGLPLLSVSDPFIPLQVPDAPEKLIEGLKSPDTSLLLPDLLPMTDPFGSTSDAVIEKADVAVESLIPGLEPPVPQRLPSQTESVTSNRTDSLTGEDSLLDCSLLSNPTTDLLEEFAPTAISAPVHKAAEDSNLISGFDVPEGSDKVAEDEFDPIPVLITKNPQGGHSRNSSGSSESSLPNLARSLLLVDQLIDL

Angiopoietin-1 receptor = Angiopoietin-1 receptor (Homo sapiens, UniProt Q02763)
Angiopoietin-1 receptor, sequence (Q02763 whole entry): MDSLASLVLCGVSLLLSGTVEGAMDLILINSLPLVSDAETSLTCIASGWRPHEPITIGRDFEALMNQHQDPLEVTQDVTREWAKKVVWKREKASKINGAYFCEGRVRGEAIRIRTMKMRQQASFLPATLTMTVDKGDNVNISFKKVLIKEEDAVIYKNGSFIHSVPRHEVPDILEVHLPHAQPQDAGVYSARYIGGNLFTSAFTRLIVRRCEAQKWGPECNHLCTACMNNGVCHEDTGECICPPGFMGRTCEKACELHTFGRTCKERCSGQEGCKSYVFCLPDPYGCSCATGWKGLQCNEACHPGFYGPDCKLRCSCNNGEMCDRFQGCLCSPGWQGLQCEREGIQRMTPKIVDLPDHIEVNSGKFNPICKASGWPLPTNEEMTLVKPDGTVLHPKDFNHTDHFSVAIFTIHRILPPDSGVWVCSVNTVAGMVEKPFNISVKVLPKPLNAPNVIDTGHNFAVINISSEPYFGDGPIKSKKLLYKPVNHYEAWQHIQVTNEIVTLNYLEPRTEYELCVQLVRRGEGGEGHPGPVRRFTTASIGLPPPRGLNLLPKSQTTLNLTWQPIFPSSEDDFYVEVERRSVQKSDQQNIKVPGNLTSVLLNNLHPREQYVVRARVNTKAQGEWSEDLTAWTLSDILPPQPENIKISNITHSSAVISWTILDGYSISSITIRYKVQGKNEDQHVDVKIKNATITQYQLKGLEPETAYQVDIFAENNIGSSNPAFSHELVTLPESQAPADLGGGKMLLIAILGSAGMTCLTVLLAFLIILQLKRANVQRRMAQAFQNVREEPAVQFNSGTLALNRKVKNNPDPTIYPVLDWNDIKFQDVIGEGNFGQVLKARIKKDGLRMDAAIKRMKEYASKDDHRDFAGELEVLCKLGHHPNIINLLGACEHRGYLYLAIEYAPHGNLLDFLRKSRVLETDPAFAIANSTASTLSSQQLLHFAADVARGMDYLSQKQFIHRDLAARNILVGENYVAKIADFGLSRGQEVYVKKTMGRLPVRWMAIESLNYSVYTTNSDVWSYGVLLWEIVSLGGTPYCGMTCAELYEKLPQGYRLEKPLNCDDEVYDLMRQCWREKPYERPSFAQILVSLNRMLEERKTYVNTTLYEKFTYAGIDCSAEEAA

[12] = biological target: Tyrosine-protein kinase HCK (Homo sapiens, UniProt P08631)
Focal adhesion kinase 1 = Focal adhesion kinase 1 (Homo sapiens, UniProt Q05397)
[13] = biological target: Tyrosine-protein kinase JAK1 (Homo sapiens, UniProt P23458)
[14] = biological target: Death-associated protein kinase 3 (Homo sapiens, UniProt O43293)
Death-associated protein kinase 3, sequence (O43293 whole entry): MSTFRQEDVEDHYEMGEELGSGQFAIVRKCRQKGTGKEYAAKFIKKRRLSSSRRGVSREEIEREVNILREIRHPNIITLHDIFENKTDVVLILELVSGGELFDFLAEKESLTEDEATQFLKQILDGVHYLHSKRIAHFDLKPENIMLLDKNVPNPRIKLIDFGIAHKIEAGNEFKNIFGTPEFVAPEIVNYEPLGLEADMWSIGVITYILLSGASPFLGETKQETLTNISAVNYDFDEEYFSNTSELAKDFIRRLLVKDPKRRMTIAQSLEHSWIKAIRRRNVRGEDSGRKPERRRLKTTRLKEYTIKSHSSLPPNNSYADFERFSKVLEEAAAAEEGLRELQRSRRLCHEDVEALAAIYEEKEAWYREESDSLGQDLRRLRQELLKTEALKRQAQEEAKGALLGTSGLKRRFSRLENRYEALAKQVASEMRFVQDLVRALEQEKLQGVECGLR

[15] = biological target: Serine/threonine-protein kinase PAK 1 (Homo sapiens, UniProt Q13153)
[16] = biological target: Protein-tyrosine kinase 6 (Homo sapiens, UniProt Q13882)
Protein-tyrosine kinase 6, sequence (Q13882 whole entry): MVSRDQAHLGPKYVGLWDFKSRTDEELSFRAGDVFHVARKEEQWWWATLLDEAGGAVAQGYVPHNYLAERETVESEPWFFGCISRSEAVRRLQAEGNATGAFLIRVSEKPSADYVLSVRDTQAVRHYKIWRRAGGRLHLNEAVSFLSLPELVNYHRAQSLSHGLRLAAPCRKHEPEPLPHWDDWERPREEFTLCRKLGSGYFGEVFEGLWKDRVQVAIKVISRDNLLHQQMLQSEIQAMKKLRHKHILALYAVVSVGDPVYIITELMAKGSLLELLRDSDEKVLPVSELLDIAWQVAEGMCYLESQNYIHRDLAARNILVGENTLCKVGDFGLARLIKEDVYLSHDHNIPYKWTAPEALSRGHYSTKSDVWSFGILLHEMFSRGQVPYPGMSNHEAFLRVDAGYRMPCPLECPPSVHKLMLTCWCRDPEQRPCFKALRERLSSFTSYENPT

[17] = biological target: Serine/threonine-protein kinase 38-like (Homo sapiens, UniProt Q9Y2H1)

Measured: Kd

Serine/threonine-protein kinase PAK 5, sequence (Q9P286 whole entry): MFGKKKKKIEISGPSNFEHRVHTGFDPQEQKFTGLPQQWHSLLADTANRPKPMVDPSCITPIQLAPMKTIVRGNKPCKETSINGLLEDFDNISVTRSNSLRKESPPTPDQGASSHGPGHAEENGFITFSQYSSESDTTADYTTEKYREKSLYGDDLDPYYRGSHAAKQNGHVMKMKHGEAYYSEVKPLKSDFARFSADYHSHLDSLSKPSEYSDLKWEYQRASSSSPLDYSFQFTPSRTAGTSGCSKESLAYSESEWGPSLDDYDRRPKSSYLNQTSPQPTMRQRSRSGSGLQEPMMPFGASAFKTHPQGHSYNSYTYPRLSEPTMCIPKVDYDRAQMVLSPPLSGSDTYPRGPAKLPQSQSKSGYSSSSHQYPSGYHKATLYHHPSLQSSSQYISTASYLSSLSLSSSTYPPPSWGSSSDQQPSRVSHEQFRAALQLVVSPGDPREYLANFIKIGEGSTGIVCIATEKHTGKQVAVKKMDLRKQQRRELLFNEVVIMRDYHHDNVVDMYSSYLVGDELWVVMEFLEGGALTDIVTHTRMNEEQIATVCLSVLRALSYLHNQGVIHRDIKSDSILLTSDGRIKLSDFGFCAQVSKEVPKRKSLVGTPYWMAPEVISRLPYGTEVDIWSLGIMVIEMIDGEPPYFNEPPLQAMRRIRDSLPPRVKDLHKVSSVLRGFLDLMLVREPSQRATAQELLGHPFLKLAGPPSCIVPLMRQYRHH
Cyclin-dependent kinase 5, sequence (Q00535 whole entry): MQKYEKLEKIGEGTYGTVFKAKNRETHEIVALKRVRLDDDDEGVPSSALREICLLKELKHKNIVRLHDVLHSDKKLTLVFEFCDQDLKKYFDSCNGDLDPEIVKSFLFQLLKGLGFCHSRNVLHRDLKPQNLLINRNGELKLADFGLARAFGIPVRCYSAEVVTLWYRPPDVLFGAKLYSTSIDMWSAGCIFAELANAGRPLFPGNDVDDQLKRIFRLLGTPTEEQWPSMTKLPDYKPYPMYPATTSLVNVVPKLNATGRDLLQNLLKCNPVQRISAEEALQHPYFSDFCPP

Cc1ccc(NC(=O)c2ccc(CN3CCN(C)CC3)cc2)cc1Nc1nccc(-c2cccnc2)n1 [IMATINIB]
Not Active: all assays above
